We go through four compounds from patent publication US20110028518A1, “DEXLANSOPRAZOLE PROCESS AND POLYMORPHS” (DR. REDDY'S LABORATORIES LTD., priority 2008, published 2011).

Structures are written as SMILES.

One series addresses (H+—K+)-ATPase (Homo sapiens, UniProt P20648). The settings on record: Biochemical Pharmacology (1991), 42(10), 1875-8; cited from earlier work.
A short description of series [1]: Storage stability studies (Example 28): water content and HPLC impurities. Type of series: physicochemical. The text has this:
A high performance liquid chromatography (HPLC) method for measuring the chemical purity of dexlansoprazole or a compound of formula (VII) of the present application, and for determination of their corresponding impurities, involves the use of a YMC-PAK ODS-A 100×4.6, 3 μm or equivalent column.
A high performance liquid chromatography (HPLC) method for measuring the impurity at RRT 1.98, and having a mass number of m/z 467, in the present application involves the use of a YMC-PRO C-18 100×4.6 mm, 3 microns or equivalent column.
Dexlansoprazole obtained from Example 23 was tested for its storage stability. The samples were stored in a tied clear polyethylene bag, placed in a black polyethylene bag filled with N2 along with a silica desiccant pouch, and the black bag was placed into a triple laminated bag along with silica gel pouch and then sealed and stored in HDPE drum packaging under the conditions noted in the following results tables. Chemical purity of the samples was measured by HPLC before and after storage.
The following impurities were monitored during stability testing:
2-mercaptobenzimidazole (designated “2-MB) having the following structure;
a “nitrosulphoxide” impurity (designated “NS”) having the following structure;
a “sulfide” impurity, having a chemical name 2-[[{4-(2,2,2-trifluoroethoxy)-3-methylpyridine-2-yl}methyl]thio]-1H-benzimidazole and the following structure;
a “sulfone” impurity, having a chemical name 2-[[{4-(2,2,2-trifluoroethoxy)-3-methylpyridine-2-yl}methyl]sulfonyl]-1H-benzimidazole and the following structure;
and an unidentified impurity at RRT (relative retention time) 1.98. Also given in the following tables are the concentration of the highest unidentified impurity as measured by HPLC, total impurities, and the water content. All results in the tables given below are expressed on a weight percent basis, and “ND” means not detected.

Series [2] can be described thus: Particle size distribution. In kind it is physicochemical. The text has this: “10th volume percentile” as used herein, unless otherwise defined refers to the size of particles, below which 10% of the measured sample volume lies; “50th volume percentile” as used herein, unless otherwise defined refers to the size of particles, below which 50% of the measured samples volume lies, and “90th volume percentile” as used herein, unless otherwise defined refers to the size of particles, below which 90% of the measured samples volume lies.
Particle size distributions of dexlansoprazole particles may be measured with a Jayant Test Siever (e.g., using mesh number 60, mesh opening 250 μm). Particle size distributions of dexlansoprazole particles may also be measured using light scattering equipment such as a Malvern Master Sizer 2000 (helium neon laser source, dexlansoprazole suspended in light liquid paraffin, size range: 0.02 μm to 2000 μm). Other techniques are also useful.

Series [3] in a line: Bulk density (USP Test 616, method 2). In kind it is physicochemical. The text has this: In an embodiment, the present application provides dexlansoprazole having bulk densities less than about 1 g/ml. Bulk density has been determined using Test 616 “Bulk Density and Tapped Density,” in United States Pharmacopoeia 29, United States Pharmacopeial Convention, Inc., Rockville, Md., 2005, in method 2.

Series [4] can be described thus: Specific surface area by the BET method. Type of series: physicochemical. The procedure:
The specific surface area of dexlansoprazole of the present application has been measured by a BET (Brunauer, Emmett and Teller) specific surface method using a Micromeritics Gemini surface area analyzer, model 2365. Samples for analysis were degassed at 40° C. under reduced pressure and the determination of the adsorption of nitrogen gas at 77° K was measured for relative pressure in the range of 0.05-0.3.

Setting [5] is: At 25 ± 2° C. and 60 ± 5% Relative Humidity, 1 month.
Where [6] appears, read: At 25 ± 2° C. and 60 ± 5% Relative Humidity, 2 months.
Setting [7] is: At 25 ± 2° C. and 60 ± 5% Relative Humidity, 3 months.
Setting [8] is: At 25 ± 2° C. and 60 ± 5% Relative Humidity, 15 days.
Setting [9] is: At 25 ± 2° C. and 60 ± 5% Relative Humidity, 45 days.
Where [10] appears, read: At 25 ± 2° C. and 60 ± 5% Relative Humidity, Initial.
[11] abbreviates: storage at 2-8° C. and at 25 ± 2° C./60 ± 5% RH, up to 3 months.

(H+—K+)-ATPase, sequence (P20648 whole entry): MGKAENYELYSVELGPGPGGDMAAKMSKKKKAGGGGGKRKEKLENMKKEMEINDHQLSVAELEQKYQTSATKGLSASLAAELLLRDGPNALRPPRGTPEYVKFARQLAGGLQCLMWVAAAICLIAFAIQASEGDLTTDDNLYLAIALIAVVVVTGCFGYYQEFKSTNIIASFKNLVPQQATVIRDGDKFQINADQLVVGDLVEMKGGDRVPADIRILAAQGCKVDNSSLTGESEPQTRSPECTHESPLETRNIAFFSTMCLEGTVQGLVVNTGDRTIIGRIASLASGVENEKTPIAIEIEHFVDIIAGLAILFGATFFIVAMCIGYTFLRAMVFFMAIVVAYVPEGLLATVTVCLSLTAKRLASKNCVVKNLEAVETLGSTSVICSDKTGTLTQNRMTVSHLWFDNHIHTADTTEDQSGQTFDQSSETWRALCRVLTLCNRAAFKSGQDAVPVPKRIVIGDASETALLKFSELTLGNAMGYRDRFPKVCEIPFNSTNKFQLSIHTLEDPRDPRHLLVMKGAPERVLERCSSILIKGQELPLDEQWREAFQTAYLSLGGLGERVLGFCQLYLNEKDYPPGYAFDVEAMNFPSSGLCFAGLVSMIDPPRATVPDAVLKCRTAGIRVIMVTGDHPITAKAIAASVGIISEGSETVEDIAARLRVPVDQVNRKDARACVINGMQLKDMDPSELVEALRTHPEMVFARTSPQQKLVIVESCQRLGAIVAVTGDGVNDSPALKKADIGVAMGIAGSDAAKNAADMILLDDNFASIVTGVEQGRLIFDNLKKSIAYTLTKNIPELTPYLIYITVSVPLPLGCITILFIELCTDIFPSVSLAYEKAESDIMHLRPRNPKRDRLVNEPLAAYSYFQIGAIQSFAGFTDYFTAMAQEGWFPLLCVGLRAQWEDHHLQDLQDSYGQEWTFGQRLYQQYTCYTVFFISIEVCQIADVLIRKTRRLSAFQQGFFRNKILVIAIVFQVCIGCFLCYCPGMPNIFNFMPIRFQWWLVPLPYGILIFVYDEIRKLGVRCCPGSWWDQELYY
(H+—K+)-ATPase, sequence (P51164 whole entry partner): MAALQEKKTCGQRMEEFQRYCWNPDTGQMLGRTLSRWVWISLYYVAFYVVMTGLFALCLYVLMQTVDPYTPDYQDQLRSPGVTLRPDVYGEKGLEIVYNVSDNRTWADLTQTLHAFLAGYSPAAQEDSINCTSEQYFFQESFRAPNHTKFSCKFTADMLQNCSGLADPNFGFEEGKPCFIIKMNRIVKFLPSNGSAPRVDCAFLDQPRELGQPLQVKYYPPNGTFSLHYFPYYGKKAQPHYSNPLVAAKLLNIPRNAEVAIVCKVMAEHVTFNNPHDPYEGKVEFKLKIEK

Regarding `Cc1c(OCC(F)(F)F)ccnc1C[S@@+]([O-])c1nc2ccccc2[nH]1` [Dexlansoprazole, (R)-2-[[[3-methyl-4-(2,2,2-trifluoroethoxy)-2-pyridinyl]methyl]sulfinyl]-1H-benzimidazole], at (H+—K+)-ATPase, the “antisecretory activity due to the inhibition of (H+—K+)-ATPase” value is recorded as “antisecretory activity”.
`Cc1c(OCC(F)(F)F)ccnc1C[S@@+]([O-])c1nc2ccccc2[nH]1` [Example 23, dexlansoprazole]: the 2-MB in series [1] (At 2-8° C., 1 month) is reported as 0.04 weight percent; in series [1] (At 2-8° C., 2 months), 0.03 weight percent; in series [1] (At 2-8° C., 3 months), 0.02 weight percent; in series [1] (At 2-8° C., Initial), 0.02 weight percent; in series [1] (setting [5]) it was 0.05 weight percent; in series [1] (setting [6]) it was 0.04 weight percent. Moreover, the 2-MB amounted to 0.04 weight percent in series [1] (setting [7]), 0.03 weight percent in series [1] (setting [8]), 0.04 weight percent in series [1] (setting [9]) and 0.02 weight percent in series [1] (setting [10]). Moreover, the “Highest Impurity” value was found to be 0.07 weight percent in series [1] (At 2-8° C., 1 month); 0.07 weight percent in series [1] (At 2-8° C., 2 months); 0.07 weight percent in series [1] (At 2-8° C., 3 months); 0.07 weight percent in series [1] (At 2-8° C., Initial); 0.09 weight percent in series [1] (setting [5]); 0.07 weight percent in series [1] (setting [6]). The “Highest Impurity” value is recorded as 0.07 weight percent in series [1] (setting [7]), 0.08 weight percent in series [1] (setting [8]), 0.06 weight percent in series [1] (setting [9]) and 0.07 weight percent in series [1] (setting [10]). The “RRT 1.98” value in series [1] (At 2-8° C., 1 month) turned out to be 0.06 weight percent; in series [1] (At 2-8° C., 2 months), 0.06 weight percent; in series [1] (At 2-8° C., 3 months) it was 0.06 weight percent; in series [1] (At 2-8° C., Initial), 0.03 weight percent; in series [1] (setting [5]), 0.14 weight percent; in series [1] (setting [6]), 0.15 weight percent. Moreover, the “RRT 1.98” value in series [1] (setting [7]) stood at 0.17 weight percent; in series [1] (setting [8]), 0.09 weight percent; in series [1] (setting [9]), 0.14 weight percent; in series [1] (setting [10]), 0.03 weight percent. Besides, the Sulfide was 0.45 weight percent in series [1] (At 2-8° C., 1 month); 0.50 weight percent in series [1] (At 2-8° C., 2 months); 0.48 weight percent in series [1] (At 2-8° C., 3 months); 0.47 weight percent in series [1] (At 2-8° C., Initial); 0.47 weight percent in series [1] (setting [5]); 0.50 weight percent in series [1] (setting [6]). In addition, the Sulfide is 0.50 weight percent in series [1] (setting [7]), 0.50 weight percent in series [1] (setting [8]), 0.52 weight percent in series [1] (setting [9]) and 0.47 weight percent in series [1] (setting [10]). For the same compound, the Sulfone in series [1] (At 2-8° C., 1 month) is reported as 0.57 weight percent; in series [1] (At 2-8° C., 2 months), 0.61 weight percent; in series [1] (At 2-8° C., 3 months), 0.59 weight percent; in series [1] (At 2-8° C., Initial), 0.59 weight percent; in series [1] (setting [5]), 0.55 weight percent; in series [1] (setting [6]), 0.61 weight percent. Moreover, the Sulfone in series [1] (setting [7]) is 0.61 weight percent; in series [1] (setting [8]), 0.61 weight percent; in series [1] (setting [9]), 0.64 weight percent; in series [1] (setting [10]), 0.59 weight percent. Further, the Total impurities in series [1] (At 2-8° C., 1 month) turned out to be 1.54 weight percent; in series [1] (At 2-8° C., 2 months) it was 1.76 weight percent; in series [1] (At 2-8° C., 3 months) it was 1.63 weight percent; in series [1] (At 2-8° C., Initial), 1.42 weight percent; in series [1] (setting [5]) it was 1.80 weight percent; in series [1] (setting [6]) it was 1.99 weight percent. The Total impurities in series [1] (setting [7]) was determined as 1.89 weight percent; in series [1] (setting [8]), 1.76 weight percent; in series [1] (setting [9]), 1.93 weight percent; in series [1] (setting [10]), 1.42 weight percent. The Water in series [1] (At 2-8° C., 1 month) was determined as 3.54 weight percent; in series [1] (At 2-8° C., 2 months), 2.61 weight percent; in series [1] (At 2-8° C., 3 months) it was 2.24 weight percent; in series [1] (At 2-8° C., Initial), 2.90 weight percent; in series [1] (setting [5]), 2.89 weight percent; in series [1] (setting [6]), 1.54 weight percent. The Water in series [1] (setting [7]) is reported as 1.50 weight percent; in series [1] (setting [8]), 1.68 weight percent; in series [1] (setting [9]), 1.29 weight percent; in series [1] (setting [10]), 2.90 weight percent. Also, in series [1] (setting [11]), the “Appearance during stability testing” value was “maintained their initial cream color powder form”. In addition, the “Physical form during stability testing” value in series [1] (setting [11]) is “remained in an amorphous form”.
As to `Cc1c(OCC(F)(F)F)ccnc1C[S@@+]([O-])c1nc2ccccc2[nH]1` [Example 24, dexlansoprazole], in series [2], the “Particle size distribution d(0.1)” value came out at 0.896 μm, the “Particle size distribution d(0.5)” value turned out to be 5.308 μm and the “Particle size distribution d(0.9)” value worked out at 12.938. In addition, the Bulk density in series [3] (after tapping) is recorded as 0.65 g/mL. This compound registered a Bulk density in series [3] (before tapping) of 0.47 g/mL.
In the case of `Cc1c(OCC(F)(F)F)ccnc1C[S@@+]([O-])c1nc2ccccc2[nH]1` [Example 25, dexlansoprazole], the “specific surface area by the BET method” value in series [4] is listed as 1.0608 m^2/g.
